Data set [1] concerns the target T1, human GLP-1 receptor (Homo sapiens, UniProt P43220).
T1 construct: expressed in transfected cells
As to the kind of experiment: GLP-1 receptor potency assay (cAMP ALPHASCREEN, HEK293 cells stably expressing GLP-1 R). The format is cell-based. The following applies: cAMP response, HEK293 cells expressing human GLP-1 R. From the text:
One useful in vitro assay for measuring GLP-1 and GLP-2 receptor activity is quantitation of cAMP, i.e. 3′-5′-cyclic adenosine monophosphate, which is a second messenger essential in many biological processes, and one of the most ubiquitous mechanisms for regulating cellular functions.
The cDNA encoding the human glucagon-like peptide 1 receptor (GLP-1 R) (primary accession number P43220) was cloned from the cDNA BC112126 (MGC:138331/IMAGE:8327594). The DNA encoding the GLP-1-R was amplified by PCR using primers encoding terminal restriction sites for subcloning. The 5′-end primers additionally encoded a near Kozak consensus sequence to ensure efficient translation. […] The PCR products encoding the GLP-1-R were subcloned into a mammalian expression vector containing a neomycin (G418) resistance marker. The mammalian expression vectors encoding the GLP-1-R were transfected into HEK293 cells by a standard calcium phosphate transfection method. 48 hours post-transfection, cells were seeded for limited dilution cloning and selected with 1 mg/ml G418 in the culture medium. Following 3 weeks in G418 selection clones were picked and tested in a functional GLP-1 receptor potency assay as described below.
The cAMP ALPHASCREEN® assay from Perkin Elmer was used to quantitate the cAMP response to activation of the GLP1 and GLP2 receptor, respectively. […] Data from test compounds eliciting an increase in the intracellular level of cAMP were normalized relative to the positive and negative control (vehicle) to calculate the EC50 and maximal response from the concentration response curve.
On the technique in general: In Alpha technology, singlet oxygen from a donor bead excites a nearby acceptor bead.

Data set [2] is described as follows: Chemical stability (RP-HPLC normalized purity after incubation at 40° C.). Conditions: 14-day incubation, 0.2 mg/ml, normalized purity (area-%); for pH 6 normalized stability: pH 6, 40° C.; for pH 7 normalized stability: pH 7, 40° C. It counts as physicochemical. A digest of the protocol: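 Peptide at 0.2 mg/ml final in water adjusted to pH 6, 7, 7.5 or 9, incubated at 40° C for 14 days. Purity measured as main-peak area-% by C18 RP-HPLC (acetonitrile/TFA/water gradient, UV 220 nm) and normalized to T=0 set at 100 for each pH.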

Data set [3] has as its target T2, human GLP-2 receptor (Homo sapiens, UniProt O95838, D470N).
T2 construct: expressed in transfected cells
T2 sequence (O95838 1-553 D470N): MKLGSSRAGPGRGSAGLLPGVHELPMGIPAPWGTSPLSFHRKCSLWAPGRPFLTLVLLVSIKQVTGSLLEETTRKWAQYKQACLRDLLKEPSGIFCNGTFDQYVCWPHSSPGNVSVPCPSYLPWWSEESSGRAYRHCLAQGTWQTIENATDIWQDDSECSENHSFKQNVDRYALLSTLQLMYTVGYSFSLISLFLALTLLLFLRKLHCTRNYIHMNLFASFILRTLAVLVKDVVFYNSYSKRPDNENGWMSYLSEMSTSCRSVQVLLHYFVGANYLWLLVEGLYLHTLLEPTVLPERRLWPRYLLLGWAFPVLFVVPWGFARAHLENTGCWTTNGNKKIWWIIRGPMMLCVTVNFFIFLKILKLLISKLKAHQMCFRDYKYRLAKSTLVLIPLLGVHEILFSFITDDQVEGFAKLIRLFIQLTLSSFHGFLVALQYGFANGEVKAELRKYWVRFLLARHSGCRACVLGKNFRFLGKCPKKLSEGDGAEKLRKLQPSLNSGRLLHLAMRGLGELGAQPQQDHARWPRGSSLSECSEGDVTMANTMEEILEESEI
The data set is described as follows: GLP-2 receptor potency assay (cAMP ALPHASCREEN, HEK293 cells stably expressing GLP-2 R). It counts as cell-based. The following applies: cAMP response, HEK293 cells expressing human GLP-2 R; read-out: EC50 GLP-2. A digest of the protocol: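 HEK293 clones stably transfected with the human GLP-2 receptor, selected with G418, were used. Intracellular cAMP was quantified by AlphaScreen. Responses were normalised to positive and vehicle controls, and EC50 and maximal response were taken from concentration-response curves.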

Where a SMILES comes first, the peptide text is derived from it.

T1 sequence (P43220 24-463): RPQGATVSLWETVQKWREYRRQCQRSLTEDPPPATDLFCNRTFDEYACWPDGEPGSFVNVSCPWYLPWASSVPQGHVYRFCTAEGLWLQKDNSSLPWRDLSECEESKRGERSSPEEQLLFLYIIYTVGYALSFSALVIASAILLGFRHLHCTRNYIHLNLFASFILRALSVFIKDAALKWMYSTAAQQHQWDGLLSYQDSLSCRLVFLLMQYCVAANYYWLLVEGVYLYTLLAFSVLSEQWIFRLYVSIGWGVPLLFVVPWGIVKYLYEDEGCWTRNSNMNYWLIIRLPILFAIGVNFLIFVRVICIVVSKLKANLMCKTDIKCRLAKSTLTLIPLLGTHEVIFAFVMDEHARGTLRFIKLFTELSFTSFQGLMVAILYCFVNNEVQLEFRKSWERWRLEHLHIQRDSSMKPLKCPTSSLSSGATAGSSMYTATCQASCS

`CC[C@H](C)[C@H](NC(=O)[C@H](Cc1ccccc1)NC(=O)[C@H](CC(=O)O)NC(=O)[C@H](CCCNC(=N)N)NC(=O)[C@H](C)NC(=O)[C@H](C)NC(=O)[C@H](CCC(=O)O)NC(=O)[C@H](CCCCNC(=O)CC[C@H](NC(=O)CCCCCCCCCCCCCCCCC(=O)O)C(=O)O)NC(=O)[C@H](CC(=O)O)NC(=O)[C@H](CC(C)C)NC(=O)[C@@H](NC(=O)[C@@H](NC(=O)[C@H](C)NC(=O)[C@H](CC(C)C)NC(=O)[C@H](CCC(=O)O)NC(=O)[C@H](CO)NC(=O)[C@@H](NC(=O)[C@H](Cc1ccccc1)NC(=O)[C@H](CO)NC(=O)CNC(=O)[C@H](CCC(=O)O)NC(=O)C(C)(C)NC(=O)[C@@H](N)Cc1c[nH]cn1)[C@@H](C)O)[C@@H](C)O)[C@@H](C)CC)C(=O)N[C@@H](C)C(=O)N[C@@H](Cc1c[nH]c2ccccc12)C(=O)N[C@@H](CC(C)C)C(=O)N[C@H](C(=O)N[C@@H](CCC(=O)O)C(=O)N[C@@H](Cc1c[nH]cn1)C(=O)N[C@@H](CCCCN)C(=O)N[C@H](C(=O)N[C@H](C(=O)N[C@@H](CC(=O)O)C(=O)O)[C@@H](C)O)[C@@H](C)CC)[C@@H](C)CC` [Compound 2] (HELM PEPTIDE1{H.[Aib].E.G.S.F.T.S.E.L.A.T.I.L.D.K.E.A.A.R.D.F.I.A.W.L.I.E.H.K.I.T.D}|PEPTIDE2{[O=C(O)CCCCCCCCCCCCCCCCC(=O)[*:2]].[gGlu]}$PEPTIDE1,PEPTIDE2,16:R3-2:R2$$$V2.0) came in with an EC50 in data set [1] of 130 pM. Further, in data set [2], the “pH 6 normalized stability” value is on record as “A (>90% normalised stability)” and the “pH 7 normalized stability” value is reported as “A (>90% normalised stability)”.

With `CC[C@H](C)[C@H](NC(=O)[C@H](Cc1ccccc1)NC(=O)[C@H](CC(=O)O)NC(=O)[C@H](CCCNC(=N)N)NC(=O)[C@H](C)NC(=O)[C@H](C)NC(=O)[C@H](CC(C)C)NC(=O)[C@H](CCCCNC(=O)CC[C@H](NC(=O)CCCCCCCCCCCCCCCCC(=O)O)C(=O)O)NC(=O)[C@H](CC(=O)O)NC(=O)[C@H](CC(C)C)NC(=O)[C@@H](NC(=O)[C@@H](NC(=O)[C@H](C)NC(=O)[C@H](CC(C)C)NC(=O)[C@H](CCC(=O)O)NC(=O)[C@H](CO)NC(=O)[C@H](CO)NC(=O)[C@H](Cc1ccccc1)NC(=O)[C@@H](NC(=O)CNC(=O)[C@H](CCC(=O)O)NC(=O)C(C)(C)NC(=O)[C@@H](N)Cc1c[nH]cn1)[C@@H](C)O)[C@@H](C)O)[C@@H](C)CC)C(=O)N[C@@H](C)C(=O)N[C@@H](Cc1c[nH]c2ccccc12)C(=O)N[C@@H](CC(C)C)C(=O)N[C@H](C(=O)N[C@@H](CCC(=O)O)C(=O)N[C@@H](Cc1c[nH]cn1)C(=O)N[C@@H](CCCCN)C(=O)N[C@H](C(=O)N[C@H](C(=O)N[C@@H](CC(=O)O)C(=O)O)[C@@H](C)O)[C@@H](C)CC)[C@@H](C)CC` [Compound 10] (HELM PEPTIDE1{H.[Aib].E.G.T.F.S.S.E.L.A.T.I.L.D.K.L.A.A.R.D.F.I.A.W.L.I.E.H.K.I.T.D}|PEPTIDE2{[O=C(O)CCCCCCCCCCCCCCCCC(=O)[*:2]].[gGlu]}$PEPTIDE1,PEPTIDE2,16:R3-2:R2$$$V2.0), the 50% effective concentration (EC50) in data set [3] came out at 87 pM; in data set [1] it was 1800 pM.

Turning to `CC[C@H](C)[C@H](NC(=O)[C@H](Cc1ccccc1)NC(=O)[C@H](CC(=O)O)NC(=O)[C@H](CCCNC(=N)N)NC(=O)[C@H](C)NC(=O)[C@H](C)NC(=O)[C@H](CC(C)C)NC(=O)[C@H](CCCCNC(=O)CC[C@H](NC(=O)CCCCCCCCCCCCCCCCC(=O)O)C(=O)O)NC(=O)[C@H](CC(=O)O)NC(=O)[C@H](CC(C)C)NC(=O)[C@@H](NC(=O)[C@@H](NC(=O)[C@H](C)NC(=O)[C@H](CC(C)C)NC(=O)[C@H](CCC(=O)O)NC(=O)[C@H](CO)NC(=O)[C@@H](NC(=O)[C@H](Cc1ccccc1)NC(=O)[C@H](CO)NC(=O)CNC(=O)[C@H](CCC(=O)O)NC(=O)C(C)(C)NC(=O)[C@@H](N)Cc1c[nH]cn1)[C@@H](C)O)[C@@H](C)O)[C@@H](C)CC)C(=O)N[C@@H](C)C(=O)N[C@@H](Cc1c[nH]c2ccccc12)C(=O)N[C@@H](CC(C)C)C(=O)N[C@H](C(=O)N[C@@H](CCC(=O)O)C(=O)N[C@@H](Cc1c[nH]cn1)C(=O)N[C@@H](CCCCN)C(=O)N[C@H](C(=O)N[C@H](C(=O)N[C@@H](CC(=O)O)C(=O)O)[C@@H](C)O)[C@@H](C)CC)[C@@H](C)CC` [Compound 11] (HELM PEPTIDE1{H.[Aib].E.G.S.F.T.S.E.L.A.T.I.L.D.K.L.A.A.R.D.F.I.A.W.L.I.E.H.K.I.T.D}|PEPTIDE2{[O=C(O)CCCCCCCCCCCCCCCCC(=O)[*:2]].[gGlu]}$PEPTIDE1,PEPTIDE2,16:R3-2:R2$$$V2.0), in data set [1], the EC50 was 320 pM. For the same compound, the “pH 7 normalized stability” value in data set [2] is listed as “A (>90% normalised stability)”.

On to `CC[C@H](C)[C@H](NC(=O)[C@H](Cc1ccccc1)NC(=O)[C@H](CC(=O)O)NC(=O)[C@H](CCCNC(=N)N)NC(=O)[C@H](C)NC(=O)[C@H](C)NC(=O)[C@H](CCC(N)=O)NC(=O)[C@H](CCCCNC(=O)CC[C@H](NC(=O)CCCCCCCCCCCCCCCCC(=O)O)C(=O)O)NC(=O)[C@H](CC(=O)O)NC(=O)[C@H](CC(C)C)NC(=O)[C@@H](NC(=O)[C@@H](NC(=O)[C@H](C)NC(=O)[C@H](CC(C)C)NC(=O)[C@H](CCC(=O)O)NC(=O)[C@H](CO)NC(=O)[C@@H](NC(=O)[C@H](Cc1ccccc1)NC(=O)[C@H](CO)NC(=O)CNC(=O)[C@H](CCC(=O)O)NC(=O)C(C)(C)NC(=O)[C@@H](N)Cc1c[nH]cn1)[C@@H](C)O)[C@@H](C)O)[C@@H](C)CC)C(=O)N[C@@H](C)C(=O)N[C@@H](Cc1c[nH]c2ccccc12)C(=O)N[C@@H](CC(C)C)C(=O)N[C@H](C(=O)N[C@@H](CCCCN)C(=O)N[C@@H](Cc1c[nH]cn1)C(=O)N[C@@H](CCCCN)C(=O)N[C@H](C(=O)N[C@H](C(=O)N[C@@H](CC(=O)O)C(=O)O)[C@@H](C)O)[C@@H](C)CC)[C@@H](C)CC` [Compound 29] (HELM PEPTIDE1{H.[Aib].E.G.S.F.T.S.E.L.A.T.I.L.D.K.Q.A.A.R.D.F.I.A.W.L.I.K.H.K.I.T.D}|PEPTIDE2{[O=C(O)CCCCCCCCCCCCCCCCC(=O)[*:2]].[gGlu]}$PEPTIDE1,PEPTIDE2,16:R3-2:R2$$$V2.0), for which the midpoint of the response in data set [1], the EC50, lay at 310 pM. For the same compound, in data set [2], the “pH 6 normalized stability” value is “A (>90% normalised stability)” and the “pH 7 normalized stability” value is “B (>80% stability)”.

The term EC50 denotes the concentration at which the effect is half-maximal.

These data come from US11395847B2, “Acylated GLP-1/GLP-2 dual agonists” (Zealand Pharma A/S, priority 2016, dated 2022).
